Data as given in patent publication US20250375428A1, “CBL-B INHIBITORS AND ANTI-PD1/ANTI-PD-L1 FOR USE IN THE TREATMENT OF CANCER” (HOTSPOT THERAPEUTICS, INC., priority 2022, published 2025).

Key:
CT26 tumor cells = assay: Subcutaneous syngeneic colorectal cancer model CT26 in female BALB/c mice; type: in vivo, mouse; settings: Compound 29 30 mg/kg p.o. (QD or BID) in combination with anti-PD1 10 mg/kg i.p. BIW; FIG. 3
Description: The objective of this pharmacology study was to evaluate the anti-tumor growth efficacy of Compound 29 with in combination with anti-PD1 antibody (BP0146) or Isotype IgG2a (BP0089) in the treatment of the subcutaneous CT26 murine colorectal cancer model in female BALB/c mice.
Test particles were delivered via PO when the average tumor volume reached approximately 80 mm^3. Test articles was assessed at dose levels as described in Table 6. Tumor volumes and body weight were measured after the initiation of treatment.
The CT26 tumor cells were maintained in vitro with RPMI-1640 medium supplemented with 10% fetal bovine serum at 37° C. in an atmosphere of 5% CO^2 in air. The cells in exponential growth phase was harvested and quantitated by cell counter before tumor inoculation.
Each mouse was inoculated subcutaneously in the right lower flank region with CT26 tumor cells (5×10^5) in 0.1 ml of PBS for tumor development. […]
Tumor volumes were measured thrice per week after randomization in two dimensions using a caliper, and the volume was expressed in mm^3 using the formula: V=(L×W×W)/2, where V is tumor volume, L is tumor length (the longest tumor dimension) and W is tumor width (the longest tumor dimension perpendicular to L). […]
Tumor growth inhibition (TGI): TGI % is an indication of antitumor activity, and expressed as: TGI (%)=100×(1−T/C). […]

H22 tumor cells = assay: Subcutaneous H22 murine liver cancer model in female BALB/c mice; type: in vivo; parameters: Dunnett's multiple comparisons test Mean Diff.: unit: mm3; settings: for TGI (%): day 12; for Dunnett's multiple comparisons test Mean Diff.: tumor volume
Description: The objective of this pharmacology study was to evaluate the anti-tumor growth efficacy of Compound 85 with in combination with anti-PD1 antibody (BP0146) in the treatment of the subcutaneous H22 murine liver cancer model in female BALB/c mice. Compound 85 test particles were delivered via PO when the average tumor volume reached approximately 80 mm^3. Compound 85 was assessed at 4 different dose levels (2 mpk, 6 mpk, 10 mpk, and 20 mpk for QD) in combination with anti-PD1 antibody (10 mpk, BIW). Tumor volumes and body weight were measured three times per week after the initiation of treatment.
The H22 tumor cells were maintained in vitro with RPMI-1640 medium supplemented with 10% fetal bovine serum at 37° C. in an atmosphere of 5% CO2. Cells in the exponential growth phase were harvested and quantified by cell counter before tumor inoculation.
Each mouse was inoculated subcutaneously in the right front flank region with H22 tumor cells (1×10e6) in 0.1 ml of PBS for tumor development.
After tumor inoculation, the animals were checked daily for morbidity and mortality. During routine monitoring, the animals were checked for any effects of tumor growth and treatments on behavior such as mobility, food and water consumption, body weight gain/loss (Body weights were measured thrice per week after randomization), eye/hair matting and any other abnormalities. Mortality and observed clinical signs were recorded for individual animals in detail.
Tumor volumes were measured three times per week after randomization in two dimensions using a caliper, and the volume was expressed in mm3 using the formula: V=(L×W×W)/2, where V is tumor volume, L is tumor length (the longest tumor dimension) and W is tumor width (the longest tumor dimension perpendicular to L). Dosing, as well as tumor and body weight measurements, were conducted in a Laminar Flow Cabinet.
Tumor growth inhibition (TGI): TGI % is an indication of antitumor activity, expressed as: TGI (%)=100×(1−T/C). T and C are the mean tumor volume (or weight) of the treated and control groups on a given day.
The treatment was performed for 21 days and the study was terminated on day 20 post dosing initiation.

Compound | tumor growth inhibition of CT26 tumors (CT26 tumor cells) | TGI (%) (H22 tumor cells; Compound 85 2 mpk QD p.o. + anti-PD1 10 mpk BIW vs. Vehicle + isotype) | TGI (%) (H22 tumor cells; Compound 85 6 mpk QD p.o. + anti-PD1 10 mpk BIW vs. Vehicle + isotype) | tumor inhibition compared with anti-PD1 alone (H22 tumor cells; Compound 85 10 mpk QD and 20 mpk QD + anti-PD1 combination) | TGI (%) (H22 tumor cells; Compound 85 10 mpk QD p.o. + anti-PD1 10 mpk BIW vs. Vehicle + isotype) | complete regression (H22 tumor cells; Compound 85 20 mpk QD and anti-PD1 combination group, day 20) | TGI (%) (H22 tumor cells; Compound 85 20 mpk QD p.o. + anti-PD1 10 mpk BIW vs. Vehicle + isotype) | benefit in combination with anti-PD1 (H22 tumor cells; Compound 85 + anti-PD1) | anti-tumor efficacy compared to single agent treatment (H22 tumor cells; Compound 85 at 2, 6, 10 and 20 mpk in combination with Anti-PD-1) | tolerability (H22 tumor cells; Compound 85 up to 20 mpk QD in combination with anti-PD1) | Dunnett's multiple comparisons test Mean Diff. (H22 tumor cells; Vehicle + isotype vs. Compound 85 2 mpk QD + anti-PD1) | Dunnett's multiple comparisons test Mean Diff. (H22 tumor cells; Vehicle + isotype vs. Compound 85 6 mpk QD + anti-PD1) | Dunnett's multiple comparisons test Mean Diff. (H22 tumor cells; Vehicle + isotype vs. Compound 85 10 mpk QD + anti-PD1) | Dunnett's multiple comparisons test Mean Diff. (H22 tumor cells; Vehicle + isotype vs. Compound 85 20 mpk QD + anti-PD1) | loss of average body weight (H22 tumor cells; day 2 of treatment, Compound 85 20 mpk QD and anti-PD1 combination)
C[C@H]1CCCN(Cc2cc(C(F)(F)F)c3cn(-c4cccc(C5(Cc6nncn6C)COC5)c4)c(=O)n3c2)C1 [Compound 29] | further enhanced |  |  |  |  |  |  |  |  |  |  |  |  |  | 
C[C@H]1CCCN(Cc2cc(C(F)(F)F)c3cn(-c4cccc([C@H](c5nncn5C)C5CCC5)c4)c(=O)n3c2)C1 [Compound 85] |  | 74.8 | 82.87 | statistically significant increase | 85.2 | One complete regression | 87.73 | additive or synergistic benefit | increased anti-tumor efficacy | No tolerability issue | 2158 | 2391 | 2458 | 2531 | less than 5%
